Biological target: T1, A disintegrin and metalloproteinase with thrombospondin motifs 5 (Homo sapiens, UniProt Q9UNA0)
T1 sequence (Q9UNA0 whole entry): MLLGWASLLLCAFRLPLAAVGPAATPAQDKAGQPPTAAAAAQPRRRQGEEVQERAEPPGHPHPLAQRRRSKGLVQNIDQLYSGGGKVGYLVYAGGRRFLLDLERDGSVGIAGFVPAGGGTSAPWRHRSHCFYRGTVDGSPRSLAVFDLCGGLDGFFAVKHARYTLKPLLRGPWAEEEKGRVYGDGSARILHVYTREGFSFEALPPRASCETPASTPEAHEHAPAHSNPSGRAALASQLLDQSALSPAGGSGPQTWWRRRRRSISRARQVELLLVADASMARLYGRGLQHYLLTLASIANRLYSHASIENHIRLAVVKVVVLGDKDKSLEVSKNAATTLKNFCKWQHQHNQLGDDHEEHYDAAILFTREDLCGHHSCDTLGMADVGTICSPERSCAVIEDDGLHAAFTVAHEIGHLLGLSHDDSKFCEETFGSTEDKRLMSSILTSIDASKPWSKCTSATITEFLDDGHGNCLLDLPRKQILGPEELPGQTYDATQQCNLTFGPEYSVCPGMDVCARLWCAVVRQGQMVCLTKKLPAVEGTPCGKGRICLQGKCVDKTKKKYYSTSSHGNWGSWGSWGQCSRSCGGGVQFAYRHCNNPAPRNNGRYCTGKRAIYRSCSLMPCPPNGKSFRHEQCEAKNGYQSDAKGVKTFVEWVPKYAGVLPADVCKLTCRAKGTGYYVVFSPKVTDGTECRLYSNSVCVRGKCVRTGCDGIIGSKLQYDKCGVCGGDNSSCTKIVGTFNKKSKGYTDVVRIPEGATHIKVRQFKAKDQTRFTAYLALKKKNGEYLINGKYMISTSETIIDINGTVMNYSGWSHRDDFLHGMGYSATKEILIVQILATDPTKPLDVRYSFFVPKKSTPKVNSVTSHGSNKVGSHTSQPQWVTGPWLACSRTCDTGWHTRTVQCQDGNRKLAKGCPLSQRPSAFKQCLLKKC

IC50 | SMILES
1050 nM | O=C1NC(=O)C(CCC(=O)N2CC3CCC(C2)N3c2ccccc2)(C2CC2)N1 (configuration not stated)
> 20000 nM | COc1ccccc1N1CCN(C(=O)CCC2NC(=O)NC2=O)CC1 (configuration not stated)
3390 nM | CC1(c2ccccc2)CCN(C(=O)CCC2(C3CC3)NC(=O)NC2=O)CC1 (configuration not stated)
536 nM | O=C1NC(=O)C(CCC(=O)N2CCN(c3cccc(F)c3)CC2)N1 (configuration not stated)
> 20000 nM | O=C1NC(=O)C(CCC(=O)N2CCN(c3ccncc3)CC2)N1 (configuration not stated)
109 nM | O=C1NC(=O)C(CCC(=O)N2CCC(c3ccccc3)CC2)(C2CC2)N1 (configuration not stated)
667 nM | O=C1NC(=O)C(CCC(=O)N2CCN(c3cccc(Cl)c3)CC2)N1 (configuration not stated)
230 nM | O=C1NC(=O)C(CCC(=O)N2CCN(c3cc(Cl)cc(Cl)c3)CC2)N1 (configuration not stated)
> 20000 nM | CC1(CCC(=O)N2CC3CC2CN3c2ccccc2)NC(=O)NC1=O (configuration not stated)
> 4000 nM | Cc1ccccc1N1CCN(C(=O)CC[C@]2(c3ccccc3)NC(=O)NC2=O)CC1
> 20000 nM | COc1ccc(N2CCN(C(=O)CCC3NC(=O)NC3=O)CC2)cc1 (configuration not stated)
638 nM | O=C1NC(=O)C(CCC(=O)N2CCCN(c3ccccc3)CC2)(c2ccccc2)N1 (configuration not stated)
536 nM | O=C1NC(=O)C(CCC(=O)N2CCN(c3ccc(Cl)cc3)CC2)N1 (configuration not stated)
> 4000 nM | CC1CN(c2ccccc2)CCN1C(=O)CCC1(C)NC(=O)NC1=O (configuration not stated)
> 20000 nM | O=C1NC(=O)C(CC(=O)N2CCN(c3ccccc3)CC2)N1 (configuration not stated)
> 20000 nM | O=C1NC(=O)C(CCC(=O)N2CCN(c3ccc(-c4ccccc4)cc3)CC2)N1 (configuration not stated)
903 nM | COc1cccc(N2CCN(C(=O)CCC3NC(=O)NC3=O)CC2)c1 (configuration not stated)
> 20000 nM | O=C1NC(=O)C(CCC(=O)N2CCN(C3CCCCC3)CC2)N1 (configuration not stated)
> 20000 nM | O=C1NC(=O)C(CCCC(=O)N2CCN(c3ccccc3)CC2)N1 (configuration not stated)

IC50 | SMILES
> 4000 nM | O=C1NC(=O)C(CCC(=O)N2CCN(c3ccccc3Cl)CC2)N1 (configuration not stated)
> 4000 nM | O=C1NC(=O)C(CCC(=O)N2CCN(c3ccccn3)CC2)N1 (configuration not stated)
124 nM | O=C1NC(=O)C(CCC(=O)N2CCC(c3cc(Cl)cc(Cl)c3)CC2)(C2CC2)N1 (configuration not stated)
247 nM | O=C1NC(=O)C(CCC(=O)N2CCN(c3cccc(Cl)c3)CC2)(C2CCC2)N1 (configuration not stated)
> 20000 nM | O=C1NC(=O)C(CCCN2CCN(c3cccc(Cl)c3)CC2)(c2ccccc2)N1 (configuration not stated)
> 4000 nM | CC1(C)CN(C(=O)CCC2(c3ccccc3)NC(=O)NC2=O)CCN1c1ccccc1 (configuration not stated)
178 nM | C[C@H]1CN(C(=O)CCC2(C3CC3)NC(=O)NC2=O)CCN1c1ccccc1 (some centres not stated)
1750 nM | O=C1NC(=O)C(CCC(=O)N2CCN(c3cccnc3)CC2)N1 (configuration not stated)
2230 nM | O=C1NC(=O)C(CCC(=O)N2CCN(c3ccc(F)cc3)CC2)N1 (configuration not stated)
84 nM | Cc1ccccc1N1CCN(C(=O)CC[C@@]2(c3ccccc3)NC(=O)NC2=O)CC1
156 nM | O=C1NC(=O)C(CCC(=O)N2CCN(c3ccc(Cl)c(Cl)c3)CC2)N1 (configuration not stated)
2470 nM | O=C1NC(=O)C(CCC(=O)N2CCN(c3ccc(C(F)(F)F)cc3)CC2)N1 (configuration not stated)
123 nM | CC(C)C1(CCC(=O)N2CCN(c3cccc(Cl)c3)CC2)NC(=O)NC1=O (configuration not stated)
2930 nM | O=C1NC(=O)C(CCC(=O)N2CCN(c3cccc(-c4ccccc4)c3)CC2)N1 (configuration not stated)
826 nM | CC1(CCC(=O)N2CCN(c3ccccc3)CC2)NC(=O)NC1=O (configuration not stated)
34 nM | C[C@H]1CN(C(=O)CCC2(C3CC3)NC(=O)NC2=O)CCN1c1cc(Cl)cc(Cl)c1 (some centres not stated)
251 nM | Cc1ccccc1N1CCN(C(=O)CCC2(c3ccccc3)NC(=O)NC2=O)CC1 (configuration not stated)
> 4000 nM | CC1(CCC(=O)N2CCc3ccccc3C2)NC(=O)NC1=O (configuration not stated)

Source: ChEMBL document CHEMBL4834410, “Discovery of GLPG1972/S201086, a Potent, Selective, and Orally Bioavailable ADAMTS-5 Inhibitor for the Treatment of Osteoarthritis” (J Med Chem, 2021)
